From article PMC10669340, “Bioactive Compounds from an Endophytic Pezicula sp. Showing Antagonistic Effects against the Ash Dieback Pathogen” (Biomolecules, 2023)
In brackets after ≈: the same amount, converted by molar mass. Like-named read-outs stand apart in the source and are kept apart here.

Columns and labels:
MTT cytotoxicity assay = type: cell-based; details: read-out: Cytotoxic activity (IC50)
Experimental: (§1) The in vitro cytotoxicity assay was performed using the MTT (3-(4,5-dimethylthiayol-2-yl)-2,5-diphenyltetrazolium bromide) test in 96-well microtiter plates as previously described.

[1] = system: Mycobacterium smegmatis ATCC 700084; test: Antimicrobial serial dilution assay (MIC); type: cell-based; details: Mycobacterium smegmatis ATCC 700084; n.i.: no inhibition
Experimental: (§2) The antimicrobial activity (minimum inhibitory concentration, MIC) of the compounds was determined against Acinetobacter baumannii DSM 30008, Bacillus subtilis DSM 10, Chromobacterium violaceum DSM 30191, Escherichia coli DSM 1116, Mycobacterium smegmatis ATCC 700084, Pseudomonas aeruginosa PA14, Staphylococcus aureus DSM 346, Candida albicans DSM1665, Mucor hiemalis DSM 2656, Pichia anomala DSM 6766, Rhodotorula glutinis DSM 10134 and Schizosaccharomyces pombe DSM 70572 in a serial dilution assay as previously described.

Bacillus subtilis DSM 10 = test: Antimicrobial serial dilution assay (MIC); type: cell-based; details: Bacillus subtilis DSM 10, n.i.: no inhibition; for MIC: DSM10, read-out: Minimum inhibitory concentration (MIC)
Experimental: as §2

[2] = system: Staphylococcus aureus DSM 346; test: Antimicrobial serial dilution assay (MIC); type: cell-based; details: Staphylococcus aureus DSM 346, n.i.: no inhibition; for MIC: DSM346, read-out: Minimum inhibitory concentration (MIC)
Experimental: as §2

[3] = system: Schizosaccharomyces pombe DSM 70572; test: Antimicrobial serial dilution assay (MIC); type: cell-based; details: Schizosaccharomyces pombe DSM 70572; n.i.: no inhibition
Experimental: as §2

Candida albicans DSM1665 = test: Antimicrobial serial dilution assay (MIC); type: cell-based; details: n.i.: no inhibition
Experimental: as §2

[4] = system: Pseudomonas aeruginosa PA14; test: Antimicrobial serial dilution assay (MIC); type: cell-based; details: n.i.: no inhibition
Experimental: as §2

[5] = system: Rhodotorula glutinis DSM 10134; test: Antimicrobial serial dilution assay (MIC); type: cell-based; details: Rhodotorula glutinis DSM 10134, n.i.: no inhibition
Experimental: as §2

[6] = system: Chromobacterium violaceum DSM 30191; test: Antimicrobial serial dilution assay (MIC); type: cell-based; details: n.i.: no inhibition
Experimental: as §2

Pichia anomala DSM 6766 = test: Antimicrobial serial dilution assay (MIC); type: cell-based; details: Pichia anomala DSM 6766; n.i.: no inhibition
Experimental: as §2

Mucor hiemalis DSM 2656 = test: Antimicrobial serial dilution assay (MIC); type: cell-based; details: Mucor hiemalis DSM 2656, n.i.: no inhibition; for MIC: DSM2656, read-out: Minimum inhibitory concentration (MIC)
Experimental: as §2

[7] = system: Escherichia coli DSM 1116; test: Antimicrobial serial dilution assay (MIC); type: cell-based; details: n.i.: no inhibition
Experimental: as §2

[8] = system: Acinetobacter baumannii DSM 30008; test: Antimicrobial serial dilution assay (MIC); type: cell-based; details: n.i.: no inhibition
Experimental: as §2

[9] = system: H. fraxineus (isolate RH02-T6-B4-2); test: Agar disc diffusion assay; type: cell-based, Hymenoscyphus fraxineus; details: 6 mm disc, 7 days, 21 °C, n.i.: no inhibition
Experimental: The antifungal activity of the isolated compounds against H. fraxineus was assessed by the disc diffusion method using 9 cm diameter petri dishes as previously described […] Three sterile filter paper discs per plate were gently placed on dried potato–dextrose agar. The fungicide nystatin was applied as the positive control (20 and 50 µg/paper disc) and methanol as the negative control (10 µL/paper disc). The test plates were incubated at 21 °C for 7 days, the inhibition diameters were measured, and the activity was evaluated compared to nystatin.
Figure S44: Agar disc (6 mm diam.) diffusion assay of compound CJ-17,572 (1) against H. fraxineus RH02-T6-B4-2, grown in 9-cm petri dishes on agar-based PD
medium with H. fraxineus, N - positive control nystatin, M - negative control methanol, CJ – 1.
Table S1. Antifungal activity of the compounds 1-6. n.i.: no inhibition, n.t.: not tested.
Compounds Amount ( µg/paper disc)
Peziculastatin n.t. n.i. 8 mm
Mycorrhizin A 19 mm 31 mm n.t.
Cryptosporioptide A n.t. n.i. n.i.
Cryptosporioptide B n.t. n.i. 8 mm
Cryptosporioptide C n.t. n.i. n.i.
Nystatin 21 mm 24 mm n.t.

[10] = system: panel of bacteria and fungi; test: Antimicrobial serial dilution assay, whole panel (summary statements); type: cell-based
Experimental: as §2

[11] = system: panel of mammalian cell lines; test: MTT cytotoxicity assay, panel (summary statements); type: cell-based; details: 4–6 only KB3.1 and L929
Experimental: as §1

[12] = human, A431 squamous cell carcinoma cells
[13] = human, A549 lung carcinoma cells
[14] = human, KB3.1 endocervical adenocarcinoma cells, n.c.: no cytotoxicity
[15] = human, MCF-7 breast adenocarcinoma cells
[16] = mouse, L929 fibroblast cells, n.c.: no cytotoxicity

Structure (SMILES) | IC50 (MTT cytotoxicity assay; [12]) [µM] | IC50 (MTT cytotoxicity assay; [13]) [µM] | IC50 (MTT cytotoxicity assay; [14]) [µM] | IC50 (MTT cytotoxicity assay; [15]) [µM] | IC50 (MTT cytotoxicity assay; [16]) [µM] | Minimum inhibitory concentration (MIC) [1] | MIC (Bacillus subtilis DSM 10) [µg/mL] | MIC [2] [µg/mL] | Minimum inhibitory concentration (MIC) [3] | Minimum inhibitory concentration (MIC) (Candida albicans DSM1665) | Minimum inhibitory concentration (MIC) [4] | Minimum inhibitory concentration (MIC) [6] | Minimum inhibitory concentration (MIC) (Pichia anomala DSM 6766) | MIC (Mucor hiemalis DSM 2656) [µg/mL] | Minimum inhibitory concentration (MIC) [7] | Minimum inhibitory concentration (MIC) [8] | antimicrobial activity against the tested microorganisms (in words) [10] | cytotoxicity against the tested cell lines (in words) [11] | Minimum inhibitory concentration (MIC) [5] | also measured
CCCCCCC(C)/C=C/C=C/C=C/C(=O)N[C@H](C(=O)O)[C@H](O)c1ccccc1O (relative stereo) [Compound 2, peziculastatin] | 53 | 41 | 17 | 11 | 53 | n.i. | 33.3 (≈ 80.1 µM) | 16.6 (≈ 39.9 µM) | n.i. | n.i. | n.i. | n.i. | n.i. | 33.3 (≈ 80.1 µM) | n.i. | n.i. | moderate to weak antifungal activity | – | – | MIC ([5]; DSM10134, read-out: Minimum inhibitory concentration (MIC)): 33.3 µg/mL (≈ 80.1 µM); Antifungal activity, inhibition diameter ([9]; 50 µg/paper disc): n.i.; Antifungal activity, inhibition diameter ([9]; 100 µg/paper disc): 8 mm
COC1=C(C(=O)[C@@]2(C)[C@@H](C)C=C[C@H]3C[C@@H](C)CC[C@@H]32)C(=O)N(C)[C@H]1[C@@H](C)O [Compound 7, 4′-methyl-CJ-17,572] | – | – | – | – | – | n.i. | 8.3 (≈ 22.1 µM) | 33.3 (≈ 88.7 µM) | n.i. | n.i. | n.i. | n.i. | n.i. | 66.6 (≈ 177 µM) | n.i. | n.i. | weak antimicrobial activity | active against all the tested cell lines | n.i. | IC50 (MTT cytotoxicity assay; human, A431): 24 µM; IC50 (MTT cytotoxicity assay; human, A549): 10 µM; IC50 (MTT cytotoxicity assay; human, KB3.1, n.c.: no cytotoxicity): 6.4 µM; IC50 (MTT cytotoxicity assay; human, MCF-7): 9.6 µM; IC50 (MTT cytotoxicity assay; human, PC-3): 9.1 µM; IC50 (MTT cytotoxicity assay; human, SKOV-3): 14 µM; IC50 (MTT cytotoxicity assay; mouse, L929, n.c.: no cytotoxicity): 32 µM
COC1=C(C(=O)[C@@]2(C)[C@@H](C)C=C[C@H]3C[C@@H](C)CC[C@@H]32)C(=O)[C@H]([C@@H](C)O)N1C [Compound 8, 2′-methyl-CJ-17,572] | 20 | 35 | 15 | 1.8 | 43 | n.i. | – | – | n.i. | n.i. | n.i. | n.i. | n.i. | – | n.i. | n.i. | did not show any activity | active against all the tested cell lines | n.i. | IC50 (MTT cytotoxicity assay; human, PC-3 prostate cancer cells): 18 µM; IC50 (MTT cytotoxicity assay; human, SKOV-3 ovarian carcinoma cells): 21 µM; Minimum inhibitory concentration (MIC) (Bacillus subtilis DSM 10): n.i.; Minimum inhibitory concentration (MIC) [2]: n.i.; Minimum inhibitory concentration (MIC) (Mucor hiemalis DSM 2656): n.i.
